This note sets out measurements from patent US7557144B1, “Modulation of protein expression using carbocyclic aryl alkenoic acid derivatives” (The Johns Hopkins University, priority 2000, dated 2009).

Common to all, as to assay type: cell-based, human
One assay has as its system Hsp70. The assay is described as follows: Hsp70 immunoblot of IB3-1 lysates. The note with it: IB3-1 cells, 37° C., 2 days; butyrate 1 mM, glycerol 1 M, phenylacetate 1 mM, G418 0.2 mg/ml. Here is the method:
(§1) 3. Immunoblot analysis. Whole cell lysates were prepared by solubilization with 2% SDS at 95° C. Protein concentration in the lysates was determined using the Bio-Rad DC assay reagents with bovine plasma g-globulin as a standard (Bio-Rad Laboratories, Hercules, Calif.). Equal amounts of protein was resolved on 5, 7, 8, or 9% SDS-polyacrylamide gels. Proteins were transferred to nitrocellulose, and immunodetection was performed as previously described (25). Nonspecific binding was blocked by incubation of the nitrocellulose with 2% gelatin or 10% nonfat day milk. Primary antisera and secondary antibodies were applied in buffer containing 0.4% BSA overnight at 4° C. and for 1 h at room temperature, respectively. Detection of immunoreactivity was performed with the enhanced chemiluminescence reagent (ECL, Amer-sham) and fluorography. Recombinant bovine Hsc70 ([…]) was purchased from Stressgen Biotechnologies for use in constructing a standard curve of Hsc70 immunoreactivity. Immunoblots containing the bovine Hsc70 were probed with the Hsc70-specific polyclonal antiserum.
(§2) Whether 4-PBA would regulate expression of a number of other molecular chaperones in IB3-1 cells (FIG. 2) was assessed next. […] Hsp90 is required for correct folding and function of a number of cellular proteins (16). […] Hsp70 (Hsp72) expression is induced by heat shock and the presence of denatured proteins within the eukaryotic cell (16). In Escherichia coli, the Hsp70 homologue DnaK and the Hsp40 homologue DnaJ act to promote protein folding (16). Hdj2 is the member of the Hsp40 family that specifically interacts with and regulates the ATPase activity of Hsc70. Hdj2 also interacts with CFTR during CFTR translation (26).
FIGS. 2A-2E are more specifically explained as follows. […] IB3-1 cells were treated as described for FIG. 1. Immunoblotting with 5 μg of IB3-1 SDS lysate protein was performed as described in the foregoing General Comments.
FIGS. 5A-C are explained in more detail as follows. […] A: IB3-1 cells were incubated at 37° C. for 2 days under indicated conditions. Cellular homogenates were prepared in 2% SDS as described in METHODS, and 5 μg of total cellular protein were analyzed by immunoblot for Hsc70 using rabbit polyclonal antiserum, Hsp90, Hsp70, Hsp40 as described above under General Comments. Con, control. B and C: densitometric analysis of Hsc70 expression (B) and Hsp90, Hsp70, and Hsp40 expression (C) was performed as described for FIG. 1. B: means 6 SE of density in 4 independent experiments.
(Immunoblotting shows a protein as a band on a membrane.)

The next assay relates to ΔF508-CFTR/Hsc70 complex. The assay is described as follows: Immunoprecipitation of Hsc70 and coimmunoprecipitation of CFTR from treated IB3-1 cells. The note with it: 2 days, butyrate 1 mM, glycerol 1 M, phenylacetate 1 mM, G418 0.2 mg/ml.
The test system of assay [1] is Hsc70. The experiment in a line: Hsc70 immunoblot of IB3-1 whole cell lysates. The note with it: IB3-1 cells, 37° C., 2 days; butyrate 1 mM, glycerol 1 M, phenylacetate 1 mM, G418 0.2 mg/ml. Here is the method:
as §1

In a further assay the test system is Hsp90. The assay is described as follows: Hsp90 immunoblot of IB3-1 lysates. The note with it: IB3-1 cells, 37° C., 2 days; butyrate 1 mM, glycerol 1 M, phenylacetate 1 mM, G418 0.2 mg/ml. Here is the method:
as §1, §2
(§3) FIGS. 2A-2E are more specifically explained as follows. […]
(§4) FIGS. 5A-C are explained in more detail as follows. […] Cellular homogenates were prepared in 2% SDS as described in METHODS, and 5 μg of total cellular protein were analyzed by immunoblot for Hsc70 using rabbit polyclonal antiserum, Hsp90, Hsp70, Hsp40 as described above under General Comments. […]

In another assay the test system is Hsp40. The experiment in a line: Hsp40 immunoblot of IB3-1 lysates. The conditions noted are these: IB3-1 cells, 37° C., 2 days; butyrate 1 mM, glycerol 1 M, phenylacetate 1 mM, G418 0.2 mg/ml. The procedure: as §1, §2, §3, §4
Another assay has as its system Hsc70 mRNA. The experiment in a line: RNase protection assay of Hsc70 mRNA in IB3-1 cells. The note with it: 2 days, 1 mM butyrate, 1 M glycerol. The text has this: 4. RNase protection. An Hsc70-specific probe for RNase protec-tion was constructed by isolation a 500-bp EcoR I fragment from American Type Culture Collection (ATCC) plasmid 77659 (ATCC, Manassas, Va.) and ligating this fragment into the EcoR I site of pSK(2) (Bluescript, Stratagene, La Jolla, Calif.). The resulting plasmid was sequenced in the Genetics Core Facility at the Johns Hopkins Hospital and found to be identical to sequences in exons 8 and 9 of the human Hsc70 sequence, with sequencing using the T3 primer and T7 primer leading to sense and antisense sequence, respectively. Hybridization probes were synthesized using a Maxiscript T7 kit (Ambion, Austin, Tex.) and [α^32 P]UTP (Amersham or DuPont NEN, Boston, Mass.) according to the Maxiscript protocol. Templates for internal control hybridizations, pTRI-18S and pTRI-cyclophilin A, were purchased from Ambion, and probes were similarly synthesized using the Maxiscript T7 kit. Probes were isolated by acid phenol-chloroform (Ambion) extraction, separated from unincorporated nucleotide by gel filtration (Sephadex G25 RNAspin column, Boehringer-Mannheim), and ethanol-acetate precipitated before resuspension in hybridization buffer. The concentration of radioactivity in the synthesized probes was determined by liquid scintillation.
RNase protection experiments were performed using the Direct Protect RNase protection assay kit (Ambion) according to the manufacturer's protocol. IB3-1 cell lysates were pre-pared in Direct Protect lysis buffer according to the manufacturer's protocol after incubation under the appropriate conditions for 48 h. Probe (50-70 and 5-10 thousands of counts/min for Hsc70 and control, respectively) and cellular RNA were hybridized overnight at 37° C. and digested with RNase cocktail. Protected fragments were resolved by electrophoresis on 5% acrylamide-8 M urea gels and detected by fluorography. Hsc70 mRNA concentration is expressed relative to control (18S or cyclophilin A) hybridization by densitometry (see Densitometric analysis). Results for hybridization of Hsc70 mRNA relative to the two control species were similar and were therefore grouped for data analysis.
FIGS. 3A-B are explained in more detailed as follows. Dose-dependent downregulation of Hsc70 mRNA expression by 4-PBA. A: IB3-1 cells were treated as for FIGS. 1 and 2. Hsc70 mRNA and 18S rRNA (as an internal reference) were measured by Direct Protect RNase protection as described under General Comments. […] P values (shown above respective error bars) were determined by 1-way ANOVA in comparison with control.
FIG. 6 is explained in more detail as follows. […] P values (shown above respective error bars) were determined by 1-way ANOVA in comparison with control.

For assay [2], the system named is Hsc70. The experiment in a line: Hsc70 immunoblot in primary CF bronchial epithelial cells. The procedure:
Shown in FIG. 11 is an experiment in which cells were exposed to control or test conditions or study drug for 48 hrs and then analyzed by immunoblotting for Hsc70, a 70 kD heat shock chaperone protein. […] Hsc70 is not as dramatically down regulated by growth at 27° C.
Shown in FIG. 12 is an experiment performed along lines as shown in FIG. 10A in the same primary cell line. Hsc70 under control conditions is strongly visible in lane 6. Study drug at 1 μM or higher, and low temperature, are associated with more than 50% reduction in Hsc70.

The subject of assay [3] is ΔF508-CFTR. The experiment in a line: CFTR immunoprecipitation and phosphorylation in IB3-1 cells (bands B and C). Here is the method:
CFTR was immunoprecipitated and phosphorylated as described in the Methods. […] Band B CFTR is barely visible consistent with low level ΔF508 expression. The positive control condition, untreated cells grown at 28° C., is in lane 7. Band C has been induced and Band B is relatively depleted consistent with an effect of low temperature on protein trafficking. […] This is consistent with an effect on protein production and on protein trafficking.
Shown in FIGS. 9A and 9B are independent experiments performed as described above. Now the control cells are analyzed in lane 5. Lanes 1-4 show decreasing concentrations of the test compound.
CFTR was detected by immunoprecipitation and phosphorylation. Control cells at 0 and 32 hrs have barely visible CFTR bands B and C. Exposure to low temperature induces band C. 1 mM 4-phenyl-Δ3-transbutenoic acid begins to induce band C and 4 hr and appears maximal by 16 hrs.

Assay [4] relates to ΔF508-CFTR. The assay is described as follows: CFTR bands B and C in primary cystic fibrosis bronchial epithelial cells. The conditions noted are these: primary CF bronchial epithelial cells, 48 hr. The procedure: Shown in FIGS. 10A and 10B are results of CF bronchial epithelial cells were harvested from the discarded lungs of a CF patient who underwent therapeutic lung transplant. The genotype is homozygous ΔF508. The methods are as described above. Control cells grown in standard conditions for 0 or 48 hrs are in lanes 6 and 7. Bands B and C are barely detectable. […] The test compound in doses from 1 μM to 1 mM for 48 hr is shown in decreasing order in lanes 2-5.

The mark [5] stands for this setting: IB3-1 cells, 1 μM to 100 μM, 48 hr (FIG. 8).

SMILES strings stand for the structures.

`OCC(O)CO` [glycerol]: the Hsp70 immunoreactivity result with Hsp70 is reported as “not change”. In the assay on ΔF508-CFTR/Hsc70 complex, the “amount of immunoreactive CFTR coprecipitated with Hsc70” value is reported as “decreases”. The Hsc70 immunoreactivity entry in the assay with Hsc70 [1] is given as “reduction”. The Hsp90 immunoreactivity result in the assay on Hsp90 is “not change”. Moreover, the Hsp40 immunoreactivity result with Hsp40 is on record as “not change”. The “reduction in steady-state Hsc70 mRNA levels” value in the assay on Hsc70 mRNA is ~50%.

`O=C(O)Cc1ccccc1` [Phenylacetate, phenylacetic acid]: the Hsp70 immunoreactivity result in the assay with Hsp70 is “not affected”. In the assay on ΔF508-CFTR/Hsc70 complex, the “amount of immunoreactive CFTR coprecipitated with Hsc70” value was “little effect”. Besides, in the assay with Hsc70 [1], the Hsc70 immunoreactivity entry is recorded as “little effect”. Besides, in the assay with Hsp90, the Hsp90 immunoreactivity entry was “little effect”. Besides, the Hsp40 immunoreactivity entry with Hsp40 is listed as “not affected”.

As for `CCCC(=O)O` [butyrate, butyric acid], the “reduction in steady-state Hsc70 mRNA levels” value with Hsc70 mRNA was ~50%.

`O=C(O)CC=Cc1ccccc1` [4-phenyl-Δ3-transbutenoic acid]: the “reduction in Hsc70” value with Hsc70 [2] (1 μM or higher (FIG. 12)) is “more than 50%”; in the assay with Hsc70 [2] (100 μM and 1 mM, 48 hrs, semi-quantitative blot (FIG. 11)) it was ≥ 50%. The “Band B and total CFTR” value with ΔF508-CFTR [3] (setting [5]) was “induction”. In addition, the “induction of Band C CFTR” value in the assay with ΔF508-CFTR [3] (setting [5]) is “dose-dependent induction of Band C”. The “time at which induction of band C begins” value with ΔF508-CFTR [3] (IB3-1 cells, 1 mM) was determined as 4 h. Further, in the assay on ΔF508-CFTR [3] (IB3-1 cells, 1 mM), the “time by which induction of band C appears maximal” value was ≤ 16 h. The “induction of CFTR bands B and C” value in the assay with ΔF508-CFTR [3] (IB3-1 cells, independent experiments (FIGS. 9A and 9B)) was “dose-dependent induction of bands B and C”; with ΔF508-CFTR [4] (homozygous ΔF508, 1 μM), “dramatic induction of bands B and C”. Moreover, in the assay on ΔF508-CFTR [3] (data of Examples 4-12), the “effectiveness compared with 4-PBA” value is on record as “much more effective at lower concentrations”. In the assay on ΔF508-CFTR [4] (doses 1 μM to 1 mM), the “concentration giving maximum induction of bands B and C” value came to 1 mM.
